{
  "source": "ChEMBL document CHEMBL5715949",
  "about": "“Discovery of a selective irreversible BMX inhibitor for prostate cancer” (ACS Chem Biol, 2013)",
  "key": {"[1]": {"test": "Induction of cell cycle arrest in human RV-1 cells assessed as accumulation of cells at S phase at 200 nM incubated for 5 days by propidium iodide staining based flow cytometric analysis (reference value: 28.9 %)", "assay_type": "functional", "settings": "time 5 day"}, "[2]": {"test": "Inhibition of PI3K/AKT/mTOR signalling pathway in human RV-1 cells assessed as decrease in 4EBP phosphorylation at T37/46 residue at 200 nM incubated for 5 days by immunoblot analysis", "assay_type": "cell-based", "settings": "time 5.0 day"}, "[3]": {"test": "Inhibition of PI3K/AKT/mTOR signalling pathway in human RV-1 cells assessed as decrease in PRAS40 phosphorylation at T246 residue at 200 nM incubated for 4 hrs by immunoblot analysis", "assay_type": "cell-based"}, "[4]": {"test": "Inhibition of PI3K/AKT/mTOR signalling pathway in human RV-1 cells assessed as decrease in AKT phosphorylation at S473 residue at 200 nM incubated for 4 hrs by immunoblot analysis", "assay_type": "cell-based"}, "[5]": {"test": "Induction of cell cycle arrest in human RV-1 cells assessed as accumulation of cells at G2/M phase at 200 nM incubated for 5 days by propidium iodide staining based flow cytometric analysis (reference value: 11.4 %)", "assay_type": "functional", "settings": "time 5 day"}, "[6]": {"test": "Inhibition of PI3K/AKT/mTOR signalling pathway in human RV-1 cells assessed as decrease in AKT phosphorylation at T308 residue at 200 nM incubated for 4 hrs by immunoblot analysis", "assay_type": "cell-based"}, "[7]": {"test": "Induction of cell cycle arrest in human RV-1 cells assessed as accumulation of cells at G1 phase at 200 nM incubated for 5 days by propidium iodide staining based flow cytometric analysis (reference value: 59.7 %)", "assay_type": "functional", "settings": "time 5 day"}, "[8]": {"target": "Cytoplasmic tyrosine-protein kinase BMX (Homo sapiens) (UniProt P51813)", "sequence (P51813 whole entry)": "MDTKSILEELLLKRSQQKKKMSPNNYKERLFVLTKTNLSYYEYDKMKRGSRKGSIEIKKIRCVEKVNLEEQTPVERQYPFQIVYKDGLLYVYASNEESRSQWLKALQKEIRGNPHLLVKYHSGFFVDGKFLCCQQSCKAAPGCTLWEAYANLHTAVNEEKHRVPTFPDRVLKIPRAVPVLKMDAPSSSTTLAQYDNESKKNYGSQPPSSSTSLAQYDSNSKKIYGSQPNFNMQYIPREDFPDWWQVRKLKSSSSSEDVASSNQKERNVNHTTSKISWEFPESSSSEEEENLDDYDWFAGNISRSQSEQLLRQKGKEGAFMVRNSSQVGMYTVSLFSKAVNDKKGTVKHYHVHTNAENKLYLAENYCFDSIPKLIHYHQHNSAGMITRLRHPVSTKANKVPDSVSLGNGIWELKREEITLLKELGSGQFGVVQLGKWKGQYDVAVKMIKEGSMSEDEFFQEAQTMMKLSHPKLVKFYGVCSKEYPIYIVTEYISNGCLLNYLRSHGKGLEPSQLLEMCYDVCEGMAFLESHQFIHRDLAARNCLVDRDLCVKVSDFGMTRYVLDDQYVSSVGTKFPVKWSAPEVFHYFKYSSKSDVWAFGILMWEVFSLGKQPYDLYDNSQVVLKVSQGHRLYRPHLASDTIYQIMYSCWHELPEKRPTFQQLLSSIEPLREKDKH", "test": "Inhibition of BMX (unknown origin) at < 10 uM by Z'LYTE assay"}, "[9]": {"test": "Inhibition of PI3K/AKT/mTOR signalling pathway in human RV-1 cells assessed as decrease in S6K phosphorylation at T389 residue at 200 nM incubated for 5 days by immunoblot analysis", "assay_type": "cell-based", "settings": "time 5.0 day"}, "[10]": {"test": "Down regulation of BMX protein expression in human RV-1 cells expressing wild type BMX assessed protein expression level at 2.5 uM pre incubated for 4 hrs followed by compound wash out and additon of CHX and measured after 16 hrs by immunoblot analysis (reference value: 0.98 to 1.01)", "assay_type": "functional"}, "BaF3 [11]": {"system": "BaF3", "test": "Antiproliferative activity against mouse BaF3 cells expressing TEL-fused BLK assessed growth inhibition incubated for 2 to 5 days by CellTiter-Glo assay", "assay_type": "functional", "settings": "time 2-5 day"}, "[12]": {"test": "Down regulation of BMX protein expression in human RV-1 cells expressing BMX C496S mutant assessed protein expression level at 2.5 uM pre incubated for 4 hrs followed by compound wash out and additon of CHX and measured after 24 hrs by immunoblot analysis (reference value: 1.01 to 1.13)", "assay_type": "functional"}, "[13]": {"test": "Down regulation of BMX protein expression in human RV-1 cells expressing wild type BMX assessed protein expression level at 2.5 uM pre incubated for 4 hrs followed by compound wash out and additon of CHX and measured after 24 hrs by immunoblot analysis (reference value: 0.98 to 1.01)", "assay_type": "functional"}, "BaF3 [14]": {"system": "BaF3", "test": "Antiproliferative activity against mouse BaF3 cells expressing TEL-fused JAK3 assessed growth inhibition incubated for 2 to 5 days by CellTiter-Glo assay", "assay_type": "functional", "settings": "time 2-5 day"}, "RV-1 [15]": {"system": "RV-1", "test": "Down regulation of BMX protein expression in human RV-1 cells expressing BMX C496S mutant at 5 uM incubated for 72 hrs by western blot analysis", "assay_type": "functional, cell-based"}, "BaF3 [16]": {"system": "BaF3", "test": "Antiproliferative activity against mouse BaF3 cells expressing TEL-fused BMX assessed growth inhibition incubated for 2 to 5 days by CellTiter-Glo assay", "assay_type": "functional, cell-based", "settings": "time 2-5 day"}, "RV-1 [17]": {"system": "RV-1", "test": "Down regulation of BMX protein expression in human RV-1 cells expressing wild type BMX at 5 uM incubated for 72 hrs by western blot analysis", "assay_type": "functional, cell-based"}, "BaF3 [18]": {"system": "BaF3", "test": "Antiproliferative activity against mouse BaF3 cells expressing TEL-fused TYK2 […] mutant assessed growth inhibition incubated for 2 to 5 days by CellTiter-Glo assay", "assay_type": "functional", "settings": "time 2-5 day"}, "[19]": {"test": "Cytotoxicity against mouse BaF3 cells assessed growth inhibition incubated for 2 to 5 days by CellTiter-Glo assay", "assay_type": "toxicity, cell-based", "settings": "time 2-5 day"}, "[20]": {"test": "Down regulation of BMX protein expression in human RV-1 cells expressing BMX C496S mutant assessed protein expression level at 2.5 uM pre incubated for 4 hrs followed by compound wash out and additon of CHX and measured after 16 hrs by immunoblot analysis (reference value: 1.01 to 1.13)", "assay_type": "functional"}, "BaF3 [21]": {"system": "BaF3", "test": "Antiproliferative activity against mouse BaF3 cells expressing TEL-fused JAK1 assessed growth inhibition incubated for 2 to 5 days by CellTiter-Glo assay", "assay_type": "functional", "settings": "time 2-5 day"}, "BaF3 [22]": {"system": "BaF3", "test": "Antiproliferative activity against mouse BaF3 cells expressing TEL-fused JAK2 assessed growth inhibition incubated for 2 to 5 days by CellTiter-Glo assay", "assay_type": "functional", "settings": "time 2-5 day"}, "RV-1 [23]": {"system": "RV-1", "test": "Antiproliferative activity against human RV-1 cells assessed as reduction in cell viability at 1. 5 to 20 uM incubated for 3 days by tryphan blue assay", "assay_type": "functional, cell-based", "settings": "dose 5-20 µM, time 3.0 day"}},
  "note": "The source made the active and inactive calls. The calls are words filed in the database; no cut-off is given here.",
  "data": [
    {"smiles": "Cl.NC1(c2ccc(-c3nc4ccn5c(=O)[nH]nc5c4cc3-c3ccccc3)cc2)CCC1", "values": [
      {"measurement": "Activity", "setting": "[1]", "result": 29.1, "unit": "%"},
      {"measurement": "inhibition", "setting": "[2]", "result": "Active"},
      {"measurement": "inhibition", "setting": "[3]", "result": "Active"},
      {"measurement": "inhibition", "setting": "[4]", "result": "Active"},
      {"measurement": "Activity", "setting": "[5]", "result": 10.9, "unit": "%"},
      {"measurement": "inhibition", "setting": "[6]", "result": "Active"},
      {"measurement": "Activity", "setting": "[7]", "result": 60, "unit": "%"},
      {"measurement": "inhibition", "setting": "[8]", "result": "inactive"},
      {"measurement": "inhibition", "setting": "[9]", "result": "Active"}
    ]},
    {"smiles": "CCC(=O)Nc1cc(-n2c(=O)ccc3cnc4ccc(NS(C)(=O)=O)cc4c32)ccc1C", "values": [
      {"measurement": "Activity", "setting": "[10]", "result": 0.64},
      {"measurement": "GI50", "setting": "BaF3 [11]", "result": "> 10", "unit": "µM"},
      {"measurement": "Activity", "setting": "[12]", "result": 0.51},
      {"measurement": "Activity", "setting": "[13]", "result": 0.72},
      {"measurement": "GI50", "setting": "BaF3 [14]", "result": "> 10", "unit": "µM"},
      {"measurement": "Activity", "setting": "RV-1 [15]", "result": "inactive"},
      {"measurement": "GI50", "setting": "BaF3 [16]", "result": "> 10", "unit": "µM"},
      {"measurement": "Activity", "setting": "RV-1 [17]", "result": "inactive"},
      {"measurement": "GI50", "setting": "BaF3 [18]", "result": "> 10", "unit": "µM"},
      {"measurement": "GI50", "setting": "[19]", "result": "> 10", "unit": "µM"},
      {"measurement": "Activity", "setting": "[20]", "result": 0.8},
      {"measurement": "GI50", "setting": "BaF3 [21]", "result": "> 10", "unit": "µM"},
      {"measurement": "GI50", "setting": "BaF3 [22]", "result": "> 10", "unit": "µM"}
    ]},
    {"smiles": "C=CC(=O)N1CCC[C@@H](n2nc(-c3ccc(Oc4ccccc4)cc3)c3c(N)ncnc32)C1", "values": [
      {"measurement": "Activity", "setting": "RV-1 [23]", "result": "Active"}
    ]}
  ]
}
